Experimental data reported in patent US20260007681A1, “INDOLE DERIVATIVES AS ESTROGEN RECEPTOR DEGRADERS” (REGENTS OF THE UNIVERSITY OF MICHIGAN, priority 2022, published 2026).
Structures can show the parent of a compound that is named as a salt. Where two headings read alike, the source gives them in different places.

How the values were obtained:
CRBN/DDB1 = CRBN/DDB1 (Homo sapiens (Human), UniProt Q96SW2); assay type: binding
Experimental: The binding potency was determined using H-TRF assay technology (Perkin Elmer). Compounds were serially diluted in DMSO and 0.2 μL volume was transferred to white 384-well plate.

ER in MCF-7 cells = ER in MCF-7 cells (Homo sapiens (Human), UniProt P03372); experiment: In-cell western (ICW) ER degradation assay in MCF-7 cells (Compounds A1-A70); assay type: cell-based; conditions: for DC50: ER degradation, 0.02 to 300 nM, read-out: MCF7 ICW DC50
ER in MCF-7 cells, sequence (P03372 whole entry): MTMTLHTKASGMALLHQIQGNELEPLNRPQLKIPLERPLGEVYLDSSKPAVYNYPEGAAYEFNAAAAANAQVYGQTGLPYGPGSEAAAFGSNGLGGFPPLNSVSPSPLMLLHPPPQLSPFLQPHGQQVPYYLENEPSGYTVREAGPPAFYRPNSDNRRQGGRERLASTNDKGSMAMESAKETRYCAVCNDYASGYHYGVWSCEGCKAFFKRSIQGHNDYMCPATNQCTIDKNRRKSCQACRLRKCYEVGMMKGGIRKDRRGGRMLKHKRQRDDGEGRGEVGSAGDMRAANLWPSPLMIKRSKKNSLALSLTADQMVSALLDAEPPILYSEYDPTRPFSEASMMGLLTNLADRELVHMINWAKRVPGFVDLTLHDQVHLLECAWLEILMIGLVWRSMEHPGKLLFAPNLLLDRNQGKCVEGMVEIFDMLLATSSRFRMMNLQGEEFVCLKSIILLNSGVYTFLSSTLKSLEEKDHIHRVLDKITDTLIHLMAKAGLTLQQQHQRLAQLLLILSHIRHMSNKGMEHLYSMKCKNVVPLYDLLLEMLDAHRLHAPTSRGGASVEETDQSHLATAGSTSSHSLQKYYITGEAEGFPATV

ER in T47D cells = ER in T47D cells (Homo sapiens (Human), UniProt P03372); experiment: In-cell western (ICW) ER degradation assay in T47D cells (Compounds A1-A70); assay type: cell-based; conditions: for DC50: ER degradation, 0.02 to 300 nM; for Dmax: T47D, read-out: T47D ICW Dmax (%)
ER in T47D cells, sequence (P03372 whole entry): as above

[1] = His tagged CRBN+DDB-DLS7+CXU4, Cy5-labeled Thalidomide probe, one hour incubation, read-out: CRBN HTRF IC50
[2] = MCF7, maximal ER degradation, MCF-7 cells, 16 hrs treatment, read-out: MCF7 ICW Dmax (%)
[3] = maximal ER degradation, T47D cells, 16 hrs treatment
[4] = MCF7, read-out: MCF7 ICW Dmax (%)

SMILES	IC50 (CRBN/DDB1; [1])	DC50 (ER in MCF-7 cells; MCF-7 cells, 16 hrs treatment)	Dmax (ER in MCF-7 cells; [2])	DC50 (ER in T47D cells; T47D cells, 16 hrs treatment)	Dmax (ER in T47D cells; [3])	IC50 (CRBN/DDB1)	Dmax (ER in MCF-7 cells; [4])	Dmax (ER in T47D cells)
COc1cc(N2CCC(CN3CCN(c4ccc(C(=O)N[C@H]5CCC(=O)NC5=O)nc4)CC3)CC2)ccc1[C@@H]1c2[nH]c3ccccc3c2C[C@@H](C)N1CC(F)F [Compound A43, 5-(4-((1-(4-((1R,3R)-2-(2,2-difluoroethyl)-3-methyl-2,3,4,9-tetrahydro-1H-pyrido[3,4-b]indol-1-yl)-3-methoxyphenyl)piperidin-4-yl)methyl)piperazin-1-yl)-N—((S)-2,6-dioxopiperidin-3-yl)picolinamide formate]	500 to 5000 nM	< 1 nM	50 to 75%	< 1 nM	50 to 75%	–	–	–
COc1cc(N2CCC(CN3CCN4c5cc6c(cc5OC[C@@H]4C3)C(=O)N([C@@H]3CCC(=O)NC3=O)C6)CC2)ccc1[C@H]1c2[nH]c3ccccc3c2C[C@H](C)N1CC(F)F [Compound A44, (R)-3-((S)-3-((1-(4-((1S,3S)-2-(2,2-difluoroethyl)-3-methyl-2,3,4,9-tetrahydro-1H-pyrido[3,4-b]indol-1-yl)-3-methoxyphenyl)piperidin-4-yl)methyl)-8-oxo-1,2,3,4,4a,5,8,10-octahydro-9H-pyrazino[1′,2′:4,5][1,4]oxazino[2,3-f]isoindol-9-yl)piperidine-2,6-dione]	50 to 500 nM	< 1 nM	50 to 75%	< 1 nM	50 to 75%	–	–	–
COc1cc(N2CCC3(CCN(C(=O)CN4Cc5cnc(C(=O)N[C@H]6CCC(=O)NC6=O)cc5C4)CC3)CC2)ccc1[C@@H]1c2[nH]c3ccccc3c2C[C@@H](C)N1CC(F)F [Compound A50, 2-(2-(9-(4-((1R,3R)-2-(2,2-difluoroethyl)-3-methyl-2,3,4,9-tetrahydro-1H-pyrido[3,4-b]indol-1-yl)-3-methoxyphenyl)-3,9-diazaspiro[5.5]undecan-3-yl)-2-oxoethyl)-N—((S)-2,6-dioxopiperidin-3-yl)-2,3-dihydro-1H-pyrrolo[3,4-c]pyridine-6-carboxamide formate]	–	–	–	–	–	500 to 5000 nM	50 to 75%	50 to 75%
COc1cc(N2CCC(CN3CCN4c5ccc(C(=O)NC6CCC(=O)NC6=O)nc5OC[C@H]4C3)CC2)ccc1[C@@H]1c2[nH]c3ccccc3c2C[C@@H](C)N1CC(F)F (stereo partly drawn) [Compound A51, (4aR)-3-((1-(4-((1R,3R)-2-(2,2-difluoroethyl)-3-methyl-2,3,4,9-tetrahydro-1H-pyrido[3,4-b]indol-1-yl)-3-methoxyphenyl)piperidin-4-yl)methyl)-N-(2,6-dioxopiperidin-3-yl)-1,2,3,4,4a,5-hexahydropyrazino[1,2-d]pyrido[2,3-b][1,4]oxazine-8-carboxamide formate]	500 to 5000 nM	< 1 nM	–	< 1 nM	> 75%	–	> 75%	–
COc1cc(N2CCC(CN3CCN(c4ccc(C(=O)NC5CCC(=O)NC5=O)nc4OC)CC3)CC2)ccc1[C@@H]1c2[nH]c3ccccc3c2C[C@@H](C)N1CC(F)F (stereo partly drawn) [Compound A52, 5-(4-((1-(4-((1R,3R)-2-(2,2-difluoroethyl)-3-methyl-2,3,4,9-tetrahydro-1H-pyrido[3,4-b]indol-1-yl)-3-methoxyphenyl)piperidin-4-yl)methyl)piperazin-1-yl)-N-(2,6-dioxopiperidin-3-yl)-6-methoxypicolinamide]	> 5000 nM	< 1 nM	25 to 50%	1 to 10 nM	25 to 50%	–	–	–
COc1cc(N2CCC(CN3CCC(c4ccc(C(=O)NC5CCC(=O)NC5=O)nc4)CC3)CC2)ccc1[C@@H]1c2[nH]c3ccccc3c2C[C@@H](C)N1CC(F)F (stereo partly drawn) [Compound A53, 5-(1-((1-(4-((1R,3R)-2-(2,2-difluoroethyl)-3-methyl-2,3,4,9-tetrahydro-1H-pyrido[3,4-b]indol-1-yl)-3-methoxyphenyl)piperidin-4-yl)methyl)piperidin-4-yl)-N-(2,6-dioxopiperidin-3-yl)picolinamide]	500 to 5000 nM	< 1 nM	25 to 50%	> 100 nM	< 25%	–	–	–
COc1cc(N2CCC(CN3CCN4c5ccc(C(=O)NC6CCC(=O)NC6=O)nc5OC[C@H]4C3)CC2)ccc1[C@H]1c2[nH]c3ccccc3c2C[C@H](C)N1CC(F)F (stereo partly drawn) [Compound A54, (4aR)-3-((1-(4-((1S,3S)-2-(2,2-difluoroethyl)-3-methyl-2,3,4,9-tetrahydro-1H-pyrido[3,4-b]indol-1-yl)-3-methoxyphenyl)piperidin-4-yl)methyl)-N-(2,6-dioxopiperidin-3-yl)-1,2,3,4,4a,5-hexahydropyrazino[1,2-d]pyrido[2,3-b][1,4]oxazine-8-carboxamide]	500 to 5000 nM	< 1 nM	50 to 75%	< 1 nM	50 to 75%	–	–	–
COc1cc(N2CCC(CN3CCN(c4ccc(C(=O)N[C@@H]5CCC(=O)NC5=O)nc4)CC3)CC2)ccc1[C@@H]1c2[nH]c3ccccc3c2C[C@@H](C)N1CC(F)F [Compound A57, 5-(4-((1-(4-((1R,3R)-2-(2,2-difluoroethyl)-3-methyl-2,3,4,9-tetrahydro-1H-pyrido[3,4-b]indol-1-yl)-3-methoxyphenyl)piperidin-4-yl)methyl)piperazin-1-yl)-N-((R)-2,6-dioxopiperidin-3-yl)picolinamide formate]	< 50 nM	< 1 nM	50 to 75%	< 1 nM	25 to 50%	–	–	–
C[C@H]1Cc2c([nH]c3ccccc23)[C@H](c2cnc(N3CCC4(CC3)C[C@H](CN3CCN5c6ccc7c(c6OC[C@@H]5C3)CN([C@@H]3CCC(=O)NC3=O)C7=O)CO4)nc2)N1CC(F)F [Compound A58, (R)-3-((S)-7-(((R)-8-(5-((1S,3S)-2-(2,2-difluoroethyl)-3-methyl-2,3,4,9-tetrahydro-1H-pyrido[3,4-b]indol-1-yl)pyrimidin-2-yl)-1-oxa-8-azaspiro[4.5]decan-3-yl)methyl)-1-oxo-1,3,5,5a,6,7,8,9-octahydro-2H-pyrazino[1′,2′:4,5][1,4]oxazino[2,3-e]isoindol-2-yl)piperidine-2,6-dione]	50 to 500 nM	< 1 nM	50 to 75%	< 1 nM	50 to 75%	–	–	–
C[C@H]1Cc2c([nH]c3ccccc23)[C@H](c2cnc(N3CCC4(CC3)C[C@H](CN3CCN5c6cc7c(cc6OC[C@H]5C3)C(=O)N([C@@H]3CCC(=O)NC3=O)C7)CO4)nc2)N1CC(F)F [Compound A60, (R)-3-((R)-3-(((R)-8-(5-((1S,3S)-2-(2,2-difluoroethyl)-3-methyl-2,3,4,9-tetrahydro-1H-pyrido[3,4-b]indol-1-yl)pyrimidin-2-yl)-1-oxa-8-azaspiro[4.5]decan-3-yl)methyl)-8-oxo-1,2,3,4,4a,5,8,10-octahydro-9H-pyrazino[1′,2′:4,5][1,4]oxazino[2,3-f]isoindol-9-yl)piperidine-2,6-dione]	500 to 5000 nM	< 1 nM	50 to 75%	< 1 nM	50 to 75%	–	–	–
C[C@H]1Cc2c([nH]c3ccccc23)[C@H](c2ccc(N3CCC(CN4CCN5c6ccc7c(c6OC[C@@H]5C4)CN([C@@H]4CCC(=O)NC4=O)C7=O)CC3)cn2)N1CC(F)(F)F [Compound A62, (R)-3-((S)-7-((1-(6-((1R,3S)-3-methyl-2-(2,2,2-trifluoroethyl)-2,3,4,9-tetrahydro-1H-pyrido[3,4-b]indol-1-yl)pyridin-3-yl)piperidin-4-yl)methyl)-1-oxo-1,3,5,5a,6,7,8,9-octahydro-2H-pyrazino[1′,2′:4,5][1,4]oxazino[2,3-e]isoindol-2-yl)piperidine-2,6-dione]	500 to 5000 nM	10 to 100 nM	25 to 50%	10 to 100 nM	25 to 50%	–	–	–
C[C@H]1Cc2c([nH]c3ccccc23)[C@H](c2ccc(N3CCC(CN4CCN5c6cc7c(cc6OC[C@H]5C4)C(=O)N([C@@H]4CCC(=O)NC4=O)C7)CC3)cn2)N1CC(F)(F)F [Compound A64, (R)-3-((R)-3-((1-(6-((1R,3S)-3-methyl-2-(2,2,2-trifluoroethyl)-2,3,4,9-tetrahydro-1H-pyrido[3,4-b]indol-1-yl)pyridin-3-yl)piperidin-4-yl)methyl)-8-oxo-1,2,3,4,4a,5,8,10-octahydro-9H-pyrazino[1′,2′:4,5][1,4]oxazino[2,3-f]isoindol-9-yl)piperidine-2,6-dione]	500 to 5000 nM	> 100 nM	< 25%	> 100 nM	< 25%	–	–	–
C[C@@H]1Cc2c([nH]c3ccccc23)[C@H](c2cnc(N3CCC4(CC3)C[C@@H](CN3CCN5c6ccc(C(=O)N[C@H]7CCC(=O)NC7=O)nc6OC[C@H]5C3)CO4)nc2)N1CC(F)F [Compound A65, (R)-3-(((S)-8-(5-((1S,3R)-2-(2,2-difluoroethyl)-3-methyl-2,3,4,9-tetrahydro-1H-pyrido[3,4-b]indol-1-yl)pyrimidin-2-yl)-1-oxa-8-azaspiro[4.5]decan-3-yl)methyl)-N-((S)-2,6-dioxopiperidin-3-yl)-1,2,3,4,4a,5-hexahydropyrazino[1,2-d]pyrido[2,3-b][1,4]oxazine-8-carboxamide]	50 to 500 nM	1 to 10 nM	50 to 75%	1 to 10 nM	50 to 75%	–	–	–
